Measurements published in PMC12568301 (Veterinary Sciences, 2025).
“Also recorded” adds a separate entry of the source. Where two headings read alike, the source gives them in different places.

Tests used:
[1] = in vitro; settings: hamster
[2] = test system: FMDV serotype A (A/TAI/NP05/2017; NP05); experiment: in vitro; settings: hamster
[3] = test system: FMDV serotype A (NP05); experiment: microbe, parasite or virus in culture; type: cell-based, Foot-and-Mouth Disease Virus; settings: for EC50: Foot-and-mouth disease virus, BHK-21, read-out: Antiviral Activity EC50, Normalized Delta Ct (RT-qPCR)
[4] = molecular target: FMDV 3C^pro (Foot-and-mouth disease virus serotype O, UniProt P03305); type: cell-based
FMDV 3C^pro, sequence (P03305 1650-1862 limits assumed): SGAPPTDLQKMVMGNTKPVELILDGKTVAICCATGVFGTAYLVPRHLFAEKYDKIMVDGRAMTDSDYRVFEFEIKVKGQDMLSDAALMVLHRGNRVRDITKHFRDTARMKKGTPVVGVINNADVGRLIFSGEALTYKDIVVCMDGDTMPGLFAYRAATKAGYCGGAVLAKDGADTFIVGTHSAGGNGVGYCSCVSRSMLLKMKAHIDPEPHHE

[5] = test system: FMDV serotype A (NP05); experiment: microbe, parasite or virus in culture; type: cell-based, Foot-and-Mouth Disease Virus; settings: for EC50: BHK-21, 22 h, read-out: Antiviral Activity EC50, Viral Copy Number (RT-qPCR)
[6] = test system: BHK-21 cells; settings: for Cytotoxicity CC10 (maximum non-toxic concentration): hamster
[7] = test system: FMDV serotype A (A/TAI/NP05/2017; NP05); type: cell-based, Foot-and-Mouth Disease Virus
[8] = test system: FMDV serotype A (A/TAI/NP05/2017; NP05); experiment: microbe, parasite or virus in culture; settings: Foot-and-mouth disease virus
[9] = molecular target: FMDV 3D^pol (Foot-and-mouth disease virus serotype O, UniProt P03305); experiment: cell-based; type: cell-based
FMDV 3D^pol, sequence (P03305 1863-2332 limits assumed): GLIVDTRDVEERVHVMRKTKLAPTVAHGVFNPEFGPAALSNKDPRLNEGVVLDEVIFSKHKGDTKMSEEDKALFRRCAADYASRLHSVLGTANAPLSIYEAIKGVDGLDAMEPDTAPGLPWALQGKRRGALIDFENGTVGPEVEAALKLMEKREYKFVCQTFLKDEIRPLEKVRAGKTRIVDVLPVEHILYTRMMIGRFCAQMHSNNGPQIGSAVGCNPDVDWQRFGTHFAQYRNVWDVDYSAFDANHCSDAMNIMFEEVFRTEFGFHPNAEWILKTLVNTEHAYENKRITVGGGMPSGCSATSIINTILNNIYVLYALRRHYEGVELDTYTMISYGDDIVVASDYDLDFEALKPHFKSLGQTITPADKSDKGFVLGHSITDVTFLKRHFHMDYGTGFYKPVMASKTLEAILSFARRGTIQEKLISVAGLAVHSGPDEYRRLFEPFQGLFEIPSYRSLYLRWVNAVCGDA

[10] = test system: influenza A (H1N1) virus; settings: cited from earlier work
[11] = test system: influenza virus neuraminidase; settings: 5 µg/mL; cited from earlier work
[12] = BHK-21, read-out: Antiviral Activity EC50, FMDV Specific-Positive Cell (IPMA)

Compound	CC50 [1] [µM]	EC50 [3] [µM]	EC50 ([5]; Foot-and-mouth disease virus) [µM]	Cytotoxicity CC10 (maximum non-toxic concentration) [6] [µM]	Inhibition of FMDV infection / cytopathic effect, post-viral entry [7]	EC50 [8, 12] [µM]	Toxicity to BHK-21 cells in words [6]	further results
c1cc2c(cc1[C@H]1OC[C@H]3[C@@H]1CO[C@H]3c1ccc3c(c1)OCO3)OCO2 [(-)-Asarinin]	90.4 ± 1.95	31.7	36.7	65.05 ± 1.81	dose-dependent inhibition	15.1	–	selectivity ratio [2]: 5.99; Inhibition of negative-strand RNA production [3]: > 60%; Selective index SI, Normalized Delta Ct (RT-qPCR) [3]: 31.67 ± 1.50 (30.47 to 32.87) SI = 2.86; Effect on FMDV 3C^pro activity [4]: Neither sesamin nor (-)-asarinin inhibited FMDV 3C^pro; also recorded: no activity observed; Selective index SI, Viral Copy Number (RT-qPCR) [5]: 36.70 ± 1.57 (36.06 to 37.34) SI = 2.46; inhibition at 40 µM ([5]; Foot-and-mouth disease virus, BHK-21, read-out: Inhibition of FMDV viral copy number): 50%; Toxicity to BHK-21 cells in words ([6]; at 100 µM): moderate cytotoxicity; EC50 ([8]; BHK-21, read-out: Effect against FMDV infection (range of EC50 values)): 15.1 to 36.7 µM; Fold greater potency compared to sesamin (IC50, minigenome) [9]: approximately 7 fold; IC50 [9]: 10.4 µM; Selective index SI, GFP Signal (FMDV Minigenome) [9]: 10.37 ± 1.01 (9.56 to 11.18) SI = 8.72
COc1cc(C2OCC3C(c4cc(OC)c(OC5OC(CO)C(O)C(O)C5O)c(OC)c4)OCC23)cc(OC)c1OC1OC(CO)C(O)C(O)C1O (stereo not shown) [Eleutheroside E]	20.8 ± 1.31	–	–	11.39 ± 1.05	no potent effect	–	moderate cytotoxicity	–
OC12COC(c3ccc4c(c3)OCO4)C1COC2c1ccc2c(c1)OCO2 (stereo not shown) [Paulownin]	860.6 ± 2.93	–	–	147.00 ± 2.167	–	–	mild toxicity	–
COc1cc([C@@H]2c3cc4c(cc3[C@H](O)[C@H]3COC(=O)[C@@H]23)OCO4)cc(OC)c1OC [Picropodophyllotoxin]	136 ± 2.13	–	–	50.07 ± 1.70	–	–	moderate cytotoxicity	–
NC(=O)c1ncn([C@@H]2O[C@H](CO)[C@@H](O)[C@H]2O)n1 [Ribavirin, reference compound]	≥ 500	29.4	32.8	–	–	39.6	–	–
c1cc2c(cc1[C@H]1OC[C@H]3[C@@H]1CO[C@@H]3c1ccc3c(c1)OCO3)OCO2 [Sesamin]	604.6 ± 2.78	60.9	82.4	254.20 ± 2.40	dose-dependent inhibition	53	–	Cytotoxicity [10]: without exhibiting cytotoxicity; Inhibition of influenza A (H1N1) virus (reduced inflammatory cytokines) [10]: inhibit influenza A (H1N1) virus; selectivity ratio [2]: 11.4; Selective index SI, Normalized Delta Ct (RT-qPCR) [3]: 60.94 ± 1.79 (60.21 to 61.67) SI = 9.92; Effect on FMDV 3C^pro activity [4]: Neither sesamin nor (-)-asarinin inhibited FMDV 3C^pro; Inhibition of FMDV viral copy number in words [5]: markedly significant inhibition; Selective index SI, Viral Copy Number (RT-qPCR) [5]: 82.43 ± 1.92 (81.65 to 83.21) SI = 7.33; Toxicity to BHK-21 cells in words ([6]; at 100 µM): mild toxicity; Inhibition of influenza virus neuraminidase [11]: inhibited influenza virus neuraminidase; IC50 [9]: 74.9 µM; Selective index SI, GFP Signal (FMDV Minigenome) [9]: 74.89 ± 1.87 (73.39 to 76.39) SI = 8.07
Gomisin A	–	–	–	–	no potent effect	–	–	–
